# Results as given in patent publication US20210338846A1, “COMPETITIVE PROSTATE-SPECIFIC MEMBRANE ANTIGEN (PSMA) BINDING AGENTS FOR REDUCTION OF NON-TARGET ORGAN UPTAKE OF RADIOLABELED PSMA INHIBITORS FOR PSMA POSITIVE TUMOR IMAGING AND RADIOPHARMACEUTICAL THERAPY” (The Johns Hopkins University, priority 2018, published 2021).
# Values joined by “and” are separate entries in the source; they are usually repeats but may differ in a detail not shown here. Equal values may be shown once. Read-outs that look alike come from different tables or passages of the source.
# What was measured:
# [1] = test system: PSMA+ PC-3 PiP and PSMA− PC-3 flu tumors
# [2] = test system: PSMA+ PC-3 PiP and PSMA− PC-3 flu tumors; format: in vivo
# [3] = 1 h, co-injection 0.5 nmole YC-I-27
# [4] = 1 h, co-injection 1.0 nmole YC-I-27
# [5] = 1 h, co-injection 5.0 nmole YC-I-27
# [6] = 4 h, co-injection 0.5 nmole YC-I-27
# [7] = 4 h, co-injection 1.0 nmole YC-I-27
# [8] = 4 h, co-injection 5.0 nmole YC-I-27
# [9] = 24 h, co-injection 0.5 nmole YC-I-27
# [10] = 2 Hour (head; title: One-Hour), No CI
# [11] = 2 Hour (head; title: One-Hour), co-injection 0.5 nmole VK-02-90
# [12] = 2 Hour (head; title: One-Hour), co-injection 1.0 nmole VK-02-90
# [13] = 2 Hour (head; title: One-Hour), co-injection 5.0 nmole VK-02-90
# [14] = 4 Hour, co-injection 0.5 nmole VK-02-90
# [15] = 4 Hour, co-injection 1.0 nmole VK-02-90
# [16] = 4 Hour, co-injection 5.0 nmole VK-02-90
compound,measurement,setting,value
O=C([O-])CN1CCN(CC(=O)[O-])CCN(CC(=O)NCCCCC(=O)N(CCCC[C@H](NC(=O)N[C@@H](CCC(=O)O)C(=O)O)C(=O)O)Cc2ccc([125I])cc2)CCN(CC(=O)[O-])CC1.[Lu+3] [[^125I]VK-02-90-Lu],Biodistribution: Blood,"[1]; 1 h, No CI",1.1 ± 0.1 % injected dose/gram
same,Biodistribution: Flu tumor,"[1]; 1 h, No CI",1.0 ± 0.2 % injected dose/gram
same,Biodistribution: Lacrimal gland,"[1]; 1 h, No CI",2.1 ± 0.9 % injected dose/gram
same,Biodistribution: PiP tumor,"[1]; 1 h, No CI",26 ± 3 % injected dose/gram
same,Biodistribution: Salivary gland,"[1]; 1 h, No CI",2.3 ± 0.5 % injected dose/gram
same,Biodistribution: kidneys,"[1]; 1 h, No CI",129 ± 15 % injected dose/gram
same,Biodistribution: spleen,"[1]; 1 h, No CI",4.3 ± 0.9 % injected dose/gram
same,Biodistribution: stomach,"[1]; 1 h, No CI",1.7 ± 0.3 % injected dose/gram
same,Biodistribution: Blood,[1]; [3],1.1 ± 0.1 % injected dose/gram
same,Biodistribution: Flu tumor,[1]; [3],1.0 ± 0.3 % injected dose/gram
same,Biodistribution: Lacrimal gland,[1]; [3],0.5 ± 0.1 % injected dose/gram
same,Biodistribution: PiP tumor,[1]; [3],42 ± 4 % injected dose/gram and 42 ± 4.2 % injected dose/gram
same,Biodistribution: Salivary gland,[1]; [3],3.2 ± 0.7 % injected dose/gram
same,Biodistribution: kidneys,[1]; [3],4.2 ± 1.3 % injected dose/gram
same,Biodistribution: spleen,[1]; [3],0.8 ± 0.2 % injected dose/gram
same,Biodistribution: stomach,[1]; [3],1.8 ± 0.2 % injected dose/gram
same,Biodistribution: Blood,[1]; [4],1.0 ± 0.1 % injected dose/gram
same,Biodistribution: Flu tumor,[1]; [4],0.8 ± 0.2 % injected dose/gram
same,Biodistribution: Lacrimal gland,[1]; [4],0.6 ± 0.05 % injected dose/gram
same,Biodistribution: PiP tumor,[1]; [4],29 ± 2 % injected dose/gram
same,Biodistribution: Salivary gland,[1]; [4],2.9 ± 0.4 % injected dose/gram
same,Biodistribution: kidneys,[1]; [4],2.4 ± 0.8 % injected dose/gram
same,Biodistribution: spleen,[1]; [4],0.6 ± 0.1 % injected dose/gram
same,Biodistribution: stomach,[1]; [4],1.8 ± 0.3 % injected dose/gram
same,Biodistribution: Blood,[1]; [5],1.1 ± 0.2 % injected dose/gram
same,Biodistribution: Flu tumor,[1]; [5],0.8 ± 0.2 % injected dose/gram
same,Biodistribution: Lacrimal gland,[1]; [5],1.1 ± 0.6 % injected dose/gram
same,Biodistribution: PiP tumor,[1]; [5],20 ± 3 % injected dose/gram
same,Biodistribution: Salivary gland,[1]; [5],5.1 ± 1.7 % injected dose/gram
same,Biodistribution: kidneys,[1]; [5],2.3 ± 0.7 % injected dose/gram
same,Biodistribution: spleen,[1]; [5],0.7 ± 0.1 % injected dose/gram
same,Biodistribution: stomach,[1]; [5],2.2 ± 0.7 % injected dose/gram
same,Biodistribution: Blood,"[1]; 4 h, No CI",0.3 ± 0.2 % injected dose/gram
same,Biodistribution: Flu tumor,"[1]; 4 h, No CI",0.2 ± 0.1 % injected dose/gram and 0.25 ± 0.1 % injected dose/gram
same,Biodistribution: Lacrimal gland,"[1]; 4 h, No CI",0.4 ± 0.2 % injected dose/gram
same,Biodistribution: PiP tumor,"[1]; 4 h, No CI",27 ± 7 % injected dose/gram and 27 ± 8 % injected dose/gram
same,Biodistribution: Salivary gland,"[1]; 4 h, No CI",1.8 ± 0.2 % injected dose/gram
same,Biodistribution: kidneys,"[1]; 4 h, No CI",9.5 ± 2.5 % injected dose/gram and 10 ± 2.5 % injected dose/gram
same,Biodistribution: spleen,"[1]; 4 h, No CI",0.6 ± 0.2 % injected dose/gram
same,Biodistribution: stomach,"[1]; 4 h, No CI",0.8 ± 0.5 % injected dose/gram
same,Biodistribution: Blood,[1]; [6],0.4 ± 0.06 % injected dose/gram
same,Biodistribution: Flu tumor,[1]; [6],0.3 ± 0.1 % injected dose/gram
same,Biodistribution: Lacrimal gland,[1]; [6],0.2 ± 0.02 % injected dose/gram and 0.4 ± 0.02 % injected dose/gram
same,Biodistribution: PiP tumor,[1]; [6],24 ± 3 % injected dose/gram
same,Biodistribution: Salivary gland,[1]; [6],3.3 ± 0.8 % injected dose/gram
same,Biodistribution: kidneys,[1]; [6],0.9 ± 0.1 % injected dose/gram
same,Biodistribution: spleen,[1]; [6],0.25 ± 0.07 % injected dose/gram
same,Biodistribution: stomach,[1]; [6],1.3 ± 0.2 % injected dose/gram
same,Biodistribution: Blood,[1]; [7],0.4 ± 0.05 % injected dose/gram
same,Biodistribution: Flu tumor,[1]; [7],0.3 ± 0.1 % injected dose/gram
same,Biodistribution: Lacrimal gland,[1]; [7],0.2 ± 0.03 % injected dose/gram
same,Biodistribution: PiP tumor,[1]; [7],24 ± 1 % injected dose/gram
same,Biodistribution: Salivary gland,[1]; [7],3.2 ± 0.7 % injected dose/gram
same,Biodistribution: kidneys,[1]; [7],0.6 ± 0.03 % injected dose/gram
same,Biodistribution: spleen,[1]; [7],0.2 ± 0.04 % injected dose/gram
same,Biodistribution: stomach,[1]; [7],1.2 ± 0.2 % injected dose/gram
same,Biodistribution: Blood,[1]; [8],0.4 ± 0.1 % injected dose/gram
same,Biodistribution: Flu tumor,[1]; [8],0.3 ± 0.1 % injected dose/gram
same,Biodistribution: Lacrimal gland,[1]; [8],0.5 ± 0.5 % injected dose/gram
same,Biodistribution: PiP tumor,[1]; [8],14 ± 5 % injected dose/gram
same,Biodistribution: Salivary gland,[1]; [8],5.0 ± 1.4 % injected dose/gram
same,Biodistribution: kidneys,[1]; [8],0.7 ± 0.1 % injected dose/gram
same,Biodistribution: spleen,[1]; [8],0.3 ± 0.06 % injected dose/gram
same,Biodistribution: stomach,[1]; [8],1.6 ± 0.4 % injected dose/gram
same,Biodistribution: Blood,"[1]; 24 h, No CI",0.01 ± 0.01 % injected dose/gram
same,Biodistribution: Flu tumor,"[1]; 24 h, No CI",0.05 ± 0.01 % injected dose/gram
same,Biodistribution: Lacrimal gland,"[1]; 24 h, No CI",0.05 ± 0.04 % injected dose/gram
same,Biodistribution: PiP tumor,"[1]; 24 h, No CI",18 ± 6 % injected dose/gram
same,Biodistribution: Salivary gland,"[1]; 24 h, No CI",0.02 ± 0.08 % injected dose/gram
same,Biodistribution: kidneys,"[1]; 24 h, No CI",1.3 ± 0.7 % injected dose/gram
same,Biodistribution: spleen,"[1]; 24 h, No CI",0.1 ± 0.05 % injected dose/gram
same,Biodistribution: stomach,"[1]; 24 h, No CI",0.01 ± 0.04 % injected dose/gram
same,Biodistribution: Blood,[1]; [9],0.1 ± 0.01 % injected dose/gram
same,Biodistribution: Flu tumor,[1]; [9],0.04 ± 0.01 % injected dose/gram
same,Biodistribution: Lacrimal gland,[1]; [9],0.03 ± 0.02 % injected dose/gram
same,Biodistribution: PiP tumor,[1]; [9],16 ± 4 % injected dose/gram
same,Biodistribution: Salivary gland,[1]; [9],0.02 ± 0.01 % injected dose/gram
same,Biodistribution: kidneys,[1]; [9],0.5 ± 0.2 % injected dose/gram
same,Biodistribution: spleen,[1]; [9],0.04 ± 0.01 % injected dose/gram
same,Biodistribution: stomach,[1]; [9],0.04 ± 0.04 % injected dose/gram
same,Biodistribution: Blood,[2]; [10],1.1 ± 0.1 % injected dose/gram
same,Biodistribution: Flu tumor,[2]; [10],1.0 ± 0.2 % injected dose/gram
same,Biodistribution: Lacrimal gland,[2]; [10],2.1 ± 0.9 % injected dose/gram
same,Biodistribution: PiP tumor,[2]; [10],26 ± 3 % injected dose/gram
same,Biodistribution: Salivary gland,[2]; [10],2.3 ± 0.5 % injected dose/gram
same,Biodistribution: kidneys,[2]; [10],129 ± 15 % injected dose/gram
same,Biodistribution: spleen,[2]; [10],4.3 ± 0.9 % injected dose/gram
same,Biodistribution: stomach,[2]; [10],1.7 ± 0.3 % injected dose/gram
same,Biodistribution: Blood,[2]; [11],0.4 ± 0.1 % injected dose/gram
same,Biodistribution: Flu tumor,[2]; [11],0.6 ± 0.3 % injected dose/gram
same,Biodistribution: Lacrimal gland,[2]; [11],0.4 ± 0.1 % injected dose/gram
same,Biodistribution: PiP tumor,[2]; [11],37 ± 7 % injected dose/gram
same,Biodistribution: Salivary gland,[2]; [11],0.2 ± 0.03 % injected dose/gram
same,Biodistribution: kidneys,[2]; [11],10 ± 2.5 % injected dose/gram
same,Biodistribution: spleen,[2]; [11],1.1 ± 0.4 % injected dose/gram
same,Biodistribution: stomach,[2]; [11],0.2 ± 0.1 % injected dose/gram
same,Biodistribution: Blood,[2]; [12],0.4 ± 0.1 % injected dose/gram
same,Biodistribution: Flu tumor,[2]; [12],0.5 ± 0.1 % injected dose/gram
same,Biodistribution: Lacrimal gland,[2]; [12],0.4 ± 0.1 % injected dose/gram
same,Biodistribution: PiP tumor,[2]; [12],35 ± 9 % injected dose/gram
same,Biodistribution: Salivary gland,[2]; [12],0.2 ± 0.06 % injected dose/gram
same,Biodistribution: kidneys,[2]; [12],6.5 ± 0.9 % injected dose/gram
same,Biodistribution: spleen,[2]; [12],1.1 ± 0.4 % injected dose/gram
same,Biodistribution: stomach,[2]; [12],0.2 ± 0.04 % injected dose/gram
same,Biodistribution: Blood,[2]; [13],0.5 ± 0.1 % injected dose/gram
same,Biodistribution: Flu tumor,[2]; [13],0.9 ± 0.3 % injected dose/gram
same,Biodistribution: Lacrimal gland,[2]; [13],0.4 ± 0.03 % injected dose/gram
same,Biodistribution: PiP tumor,[2]; [13],24 ± 4 % injected dose/gram
same,Biodistribution: Salivary gland,[2]; [13],0.3 ± 0.1 % injected dose/gram
same,Biodistribution: kidneys,[2]; [13],4.2 ± 0.5 % injected dose/gram
same,Biodistribution: spleen,[2]; [13],0.7 ± 0.2 % injected dose/gram
same,Biodistribution: stomach,[2]; [13],0.2 ± 0.06 % injected dose/gram
same,Biodistribution: Blood,"[2]; 4 Hour, No CI",0.3 ± 0.2 % injected dose/gram
same,Biodistribution: Flu tumor,"[2]; 4 Hour, No CI",0.2 ± 0.1 % injected dose/gram
same,Biodistribution: Lacrimal gland,"[2]; 4 Hour, No CI",0.4 ± 0.2 % injected dose/gram
same,Biodistribution: PiP tumor,"[2]; 4 Hour, No CI",27 ± 8 % injected dose/gram
same,Biodistribution: Salivary gland,"[2]; 4 Hour, No CI",1.8 ± 0.2 % injected dose/gram
same,Biodistribution: kidneys,"[2]; 4 Hour, No CI",10 ± 2.5 % injected dose/gram
same,Biodistribution: spleen,"[2]; 4 Hour, No CI",0.6 ± 0.2 % injected dose/gram
same,Biodistribution: stomach,"[2]; 4 Hour, No CI",0.8 ± 0.5 % injected dose/gram
same,Biodistribution: Blood,[2]; [14],0.02 ± 0.01 % injected dose/gram
same,Biodistribution: Flu tumor,[2]; [14],0.1 ± 0.02 % injected dose/gram
same,Biodistribution: Lacrimal gland,[2]; [14],0.1 ± 0.03 % injected dose/gram
same,Biodistribution: PiP tumor,[2]; [14],25 ± 2 % injected dose/gram
same,Biodistribution: Salivary gland,[2]; [14],0.08 ± 0.04 % injected dose/gram
same,Biodistribution: kidneys,[2]; [14],2.1 ± 0.7 % injected dose/gram
same,Biodistribution: spleen,[2]; [14],0.2 ± 0.1 % injected dose/gram
same,Biodistribution: stomach,[2]; [14],0.06 ± 0.01 % injected dose/gram
same,Biodistribution: Blood,[2]; [15],0.2 ± 0.01 % injected dose/gram
same,Biodistribution: Flu tumor,[2]; [15],0.1 ± 0.03 % injected dose/gram
same,Biodistribution: Lacrimal gland,[2]; [15],0.1 ± 0.05 % injected dose/gram
same,Biodistribution: PiP tumor,[2]; [15],27 ± 4 % injected dose/gram
same,Biodistribution: Salivary gland,[2]; [15],0.1 ± 0.02 % injected dose/gram
same,Biodistribution: kidneys,[2]; [15],1.4 ± 0.4 % injected dose/gram
same,Biodistribution: spleen,[2]; [15],0.2 ± 0.1 % injected dose/gram
same,Biodistribution: stomach,[2]; [15],0.1 ± 0.03 % injected dose/gram
same,Biodistribution: Blood,[2]; [16],0 % injected dose/gram
same,Biodistribution: Flu tumor,[2]; [16],0.1 ± 0.01 % injected dose/gram
same,Biodistribution: Lacrimal gland,[2]; [16],0.1 ± 0.1 % injected dose/gram
same,Biodistribution: PiP tumor,[2]; [16],19 ± 2 % injected dose/gram
same,Biodistribution: Salivary gland,[2]; [16],0.05 ± 0.02 % injected dose/gram
same,Biodistribution: kidneys,[2]; [16],0.9 ± 0.3 % injected dose/gram
same,Biodistribution: spleen,[2]; [16],0.15 ± 0.08 % injected dose/gram
same,Biodistribution: stomach,[2]; [16],0.1 ± 0.04 % injected dose/gram
